Assay results: patent EP4273147A1, “SUBSTITUTED SPIROLACTAMS, SALTS THEREOF AND THEIR USE AS HERBICIDALLY ACTIVE SUBSTANCES” (Bayer Aktiengesellschaft, priority 2022, dated 2023)
One block for each compound: values may come before it.

Assays:
ABUTH [1] = experiment: Herbicidal pre-emergence action (Table A1); type: in vivo, Abutilon theophrasti; conditions: application rate 1280 g/ha; visual grading after ca. 3 weeks vs untreated controls (100% = plants have died off, 0% = as control plants)
In short: (§1)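 Pots: sandy loam. Sowing: one mono- and one dicot weed species together per pot. Seeds covered with soil.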

ECHCG [2] = experiment: Herbicidal pre-emergence action (Table A2); type: in vivo, Echinochloa crus-galli; conditions: application rate 320 g/ha; visual grading after ca. 3 weeks
In short: as §1

LOLRI [3] = experiment: Herbicidal pre-emergence action (Table A3); type: in vivo, Lolium rigidum; conditions: visual grading after ca. 3 weeks
In short: as §1

MATIN [4] = experiment: Herbicidal pre-emergence action (Table A4); type: in vivo, Matricaria inodora; conditions: visual grading after ca. 3 weeks
In short: as §1

SETVI [5] = experiment: Herbicidal pre-emergence action (Table A5); type: in vivo, Setaria viridis; conditions: application rate 320 g/ha; visual grading after ca. 3 weeks
In short: as §1

STEME = experiment: Herbicidal pre-emergence action (Table A6); type: in vivo, Stellaria media; conditions: application rate 320 g/ha; visual grading after ca. 3 weeks
In short: as §1

POAAN [6] = experiment: Herbicidal pre-emergence action (Table A7); type: in vivo, Poa annua; conditions: application rate 320 g/ha; visual grading after ca. 3 weeks
In short: as §1

MATIN [7] = experiment: Herbicidal post-emergence action (Table B6); type: in vivo, Matricaria inodora; conditions: application rate 1280 g/ha; rated visually after about 3 weeks
In short: (§2)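 Percent herbicidal activity scored visually versus untreated controls, with 100% meaning dead plants. Scoring took place ~3 weeks after post-emergence treatment of one-leaf-stage weeds grown in sandy loam pots in a greenhouse.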

POAAN [8] = experiment: Herbicidal post-emergence action (Table B7); type: in vivo, Poa annua
In short: as §2

ALOMY [9] = experiment: Herbicidal pre-emergence action, section C (Table C2); type: in vivo, Alopecurus myosuroides; conditions: visual grading after ca. 3 weeks
ECHCG [10] = experiment: Herbicidal pre-emergence action, section C (Table C6); type: in vivo, Echinochloa crus-galli; conditions: application rate 80 g/ha; visual grading after ca. 3 weeks
LOLRI [11] = experiment: Herbicidal pre-emergence action, section C (Table C7); type: in vivo, Lolium rigidum; conditions: application rate 320 g/ha; visual grading after ca. 3 weeks
Text: (§4) Seeds of mono- and dicotyledonous weed plants and crop plants were sown, in plastic or organic planting pots, in sandy loam and covered with soil. The compounds according to the invention, formulated in the form of wettable powders (WP) or as emulsifiable concentrates (EC), were applied to the surface of the covering soil as aqueous suspension or emulsion, with the addition of 0.5% of an additive, at an application rate of 600 1 of water/ha (converted). Following treatment, the pots were placed in a greenhouse and kept under optimum growth conditions for the test plants.

SETVI [12] = experiment: Herbicidal pre-emergence action, section C (Table C10); type: in vivo, Setaria viridis; conditions: visual grading after ca. 3 weeks
VERPE [13] = experiment: Herbicidal pre-emergence action, section C (Table C11); type: in vivo, Veronica persica; conditions: application rate 320 g/ha; visual grading after ca. 3 weeks
VIOTR [14] = experiment: Herbicidal pre-emergence action, section C (Table C12); type: in vivo, Viola tricolor; conditions: visual grading after ca. 3 weeks
ZEAMX [15] = experiment: Pre-emergence effects on crop plants (Table D1); type: in vivo, Zea mays; conditions: crop plant; application rate 80 g/ha; visual grading after ca. 3 weeks
TRZAS [16] = experiment: Pre-emergence effects on crop plants (Table D2); type: in vivo, Triticum aestivum; conditions: crop plant; application rate 80 g/ha; visual grading after ca. 3 weeks
BRSNW [17] = experiment: Pre-emergence effects on crop plants (Table D5); type: in vivo, Brassica napus; conditions: crop plant; application rate 320 g/ha; visual grading after ca. 3 weeks
ALOMY [18] = experiment: Herbicidal post-emergence action, section E (Table E2); type: in vivo, Alopecurus myosuroides; conditions: application rate 320 g/ha; assessed visually after ca. 3 weeks
Text: (§3) 2 to 3 weeks after sowing, the test plants were sprayed in the single-leaf stage.

ZEAMX [19] = experiment: Post-emergence effects on crop plants (Table F1); type: in vivo, Zea mays; conditions: crop plant ZEAMX
Text: as §3

TRZAS [20] = experiment: Post-emergence effects on crop plants (Table F2); type: in vivo, Triticum aestivum; conditions: crop plant TRZAS
Text: as §3

ORYZA [21] = experiment: Post-emergence effects on crop plants (Table F3); type: in vivo, Oryza sativa; conditions: application rate 320 g/ha, crop plant ORYZA
Text: as §3

GLXMA = experiment: Post-emergence effects on crop plants (Table F4); type: in vivo, Glycine max; conditions: application rate 80 g/ha, crop plant GLXMA
Text: as §3

BRSNW [22] = experiment: Post-emergence effects on crop plants (Table F5); type: in vivo, Brassica napus; conditions: crop plant BRSNW
Text: as §3

ORYZA [23] = experiment: Pre-emergence effects on crop plants (Table D3); conditions: crop plant, visual grading after ca. 3 weeks
Text: Seeds of mono- and dicotyledonous weed plants and crop plants were sown, in plastic or organic planting pots, in sandy loam and covered with soil. The compounds according to the invention, formulated in the form of wettable powders (WP) or as emulsifiable concentrates (EC), were applied to the surface of the covering soil as aqueous suspension or emulsion, with the addition of 0.5% of an additive, at an application rate of 600 1 of water/ha (converted).
Following treatment, the pots were placed in a greenhouse and kept under optimum growth conditions for the test plants.

AMARE = experiment: Herbicidal pre-emergence action (Table A8); type: in vivo, Amaranthus retroflexus; conditions: application rate 1280 g/ha; visual grading after ca. 3 weeks vs untreated controls (100% = plants have died off, 0% = as control plants)
Text: Seeds of mono- and dicotyledonous weed plants were sown in plastic pots (double sowings with one species of mono- and one species of dicotyledonous weed plants per pot), in sandy loam, and covered with soil.

ALOMY [24] = experiment: Herbicidal pre-emergence action (Table A9); type: in vivo, Alopecurus myosuroides; conditions: application rate 1280 g/ha; visual grading after ca. 3 weeks
In short: as §1

VERPE [25] = experiment: Herbicidal pre-emergence action (Table A11); type: in vivo, Veronica persica; conditions: application rate 1280 g/ha; visual grading after ca. 3 weeks
In short: as §1

DIGSA [26] = experiment: Herbicidal pre-emergence action (Table A12); type: in vivo, Digitaria sanguinalis; conditions: application rate 320 g/ha; visual grading after ca. 3 weeks
In short: as §1

ABUTH [27] = experiment: Herbicidal post-emergence action (Table B1); type: in vivo, Abutilon theophrasti; conditions: application rate 1280 g/ha; treated at one-leaf stage; rated visually after about 3 weeks vs untreated controls (100% = plants have died, 0% = like control plants)
Protocol: Seeds of mono- and dicotyledonous weed plants were placed in plastic pots in sandy loam soil (doubly sown with in each case one species of mono- or dicotyledonous weed plants per pot), covered with soil and cultivated in a greenhouse under controlled growth conditions. 2 to 3 weeks after sowing, the test plants were treated at the one-leaf stage. […] After the test plants had been kept in the greenhouse under optimum growth conditions for about 3 weeks, the activity of the preparations was rated visually in comparison to untreated controls. For example, 100% activity = the plants have died, 0% activity = like control plants.

SETVI [28] = experiment: Herbicidal post-emergence action (Table B8); type: in vivo, Setaria viridis; conditions: application rate 1280 g/ha
In short: as §2

ABUTH [29] = experiment: Herbicidal pre-emergence action, section C (Table C1); type: in vivo, Abutilon theophrasti; conditions: application rate 320 g/ha; visual grading after ca. 3 weeks
DIGSA [30] = experiment: Herbicidal pre-emergence action, section C (Table C5); type: in vivo, Digitaria sanguinalis; conditions: application rate 320 g/ha; visual grading after ca. 3 weeks
Text: as §4

MATIN [31] = experiment: Herbicidal pre-emergence action, section C (Table C8); type: in vivo, Matricaria inodora; conditions: application rate 320 g/ha; visual grading after ca. 3 weeks
POLCO = experiment: Herbicidal pre-emergence action, section C (Table C9); type: in vivo, Polygonum convolvulus; conditions: application rate 80 g/ha; visual grading after ca. 3 weeks
VIOTR [32] = experiment: Herbicidal post-emergence action, section E (Table E10); type: in vivo, Viola tricolor; conditions: application rate 320 g/ha; assessed visually after ca. 3 weeks
Text: as §3

pre-emergence activity against ZEAMX (ZEAMX [15]): 20%
pre-emergence activity against TRZAS (TRZAS [16]): 20%
pre-emergence activity against BRSNW (BRSNW [17]): 0%
pre-emergence activity against ORYZA (ORYZA [23]; application rate 320 g/ha): 10%
SMILES: O=C1N(Cc2cccc(F)c2F)CCCC12CCCN(Cc1cccc(F)c1F)C2=O (racemic) [I-012]
pre-emergence activity against ABUTH (ABUTH [1]): 90%
pre-emergence activity against ECHCG (ECHCG [2]): 100%
pre-emergence activity against LOLRI (LOLRI [3]; application rate 1280 g/ha): 100%
pre-emergence activity against MATIN (MATIN [4]; application rate 1280 g/ha): 90%
pre-emergence activity against SETVI (SETVI [5]): 100%
pre-emergence activity against STEME (STEME): 90%
pre-emergence activity against POAAN (POAAN [6]): 100%
post-emergence activity against MATIN (MATIN [7]): 90%
post-emergence activity against POAAN (POAAN [8]; application rate 320 g/ha): 100%
pre-emergence activity against ALOMY (ALOMY [9]; application rate 80 g/ha): 90%
pre-emergence activity against ECHCG (ECHCG [10]): 100%
pre-emergence activity against LOLRI (LOLRI [11]): 100%
pre-emergence activity against SETVI (SETVI [12]; application rate 320 g/ha): 100%
pre-emergence activity against VERPE (VERPE [13]): 80%
pre-emergence activity against VIOTR (VIOTR [14]; application rate 320 g/ha): 80%
post-emergence activity against ALOMY (ALOMY [18]): 80%
post-emergence activity against ZEAMX (ZEAMX [19]; application rate 320 g/ha): 0%
post-emergence activity against TRZAS (TRZAS [20]; application rate 80 g/ha): 0%
post-emergence activity against ORYZA (ORYZA [21]): 10%
post-emergence activity against GLXMA (GLXMA): 0%
post-emergence activity against BRSNW (BRSNW [22]; application rate 320 g/ha): 20%

pre-emergence activity against ZEAMX (ZEAMX [15]): 0%
pre-emergence activity against TRZAS (TRZAS [16]): 0%
pre-emergence activity against ORYZA (ORYZA [23]; application rate 80 g/ha): 0%
SMILES: O=C1N(Cc2ccccc2F)CCCC12CCN(Cc1ccccc1F)C2=O (racemic) [I-026]
pre-emergence activity against ABUTH (ABUTH [1]): 90%
pre-emergence activity against ECHCG (ECHCG [2]): 100%
pre-emergence activity against LOLRI (LOLRI [3]; application rate 320 g/ha): 100%
pre-emergence activity against MATIN (MATIN [4]; application rate 320 g/ha): 90%
pre-emergence activity against SETVI (SETVI [5]): 100%
pre-emergence activity against STEME (STEME): 90%
pre-emergence activity against POAAN (POAAN [6]): 100%
pre-emergence activity against AMARE (AMARE): 90%
pre-emergence activity against ALOMY (ALOMY [24]): 100%
pre-emergence activity against VERPE (VERPE [25]): 90%
pre-emergence activity against DIGSA (DIGSA [26]): 100%
post-emergence activity against ABUTH (ABUTH [27]): 90%
post-emergence activity against POAAN (POAAN [8]; application rate 1280 g/ha): 90%
post-emergence activity against SETVI (SETVI [28]): 90%
pre-emergence activity against ABUTH (ABUTH [29]): 80%
pre-emergence activity against ALOMY (ALOMY [9]; application rate 320 g/ha): 100%
pre-emergence activity against DIGSA (DIGSA [30]): 100%
pre-emergence activity against ECHCG (ECHCG [10]): 100%
pre-emergence activity against LOLRI (LOLRI [11]): 100%
pre-emergence activity against MATIN (MATIN [31]): 90%
pre-emergence activity against POLCO (POLCO): 80%
pre-emergence activity against SETVI (SETVI [12]; application rate 80 g/ha): 100%
pre-emergence activity against VERPE (VERPE [13]): 80%
pre-emergence activity against VIOTR (VIOTR [14]; application rate 80 g/ha): 90%
post-emergence activity against VIOTR (VIOTR [32]): 80%
post-emergence activity against ZEAMX (ZEAMX [19]; application rate 80 g/ha): 0%
post-emergence activity against TRZAS (TRZAS [20]; application rate 320 g/ha): 0%
post-emergence activity against ORYZA (ORYZA [21]): 0%
post-emergence activity against GLXMA (GLXMA): 0%
post-emergence activity against BRSNW (BRSNW [22]; application rate 80 g/ha): 0%
